Values after ≈ are worked out from the molar mass of the structure shown. Where a name gives a salt, the structure may show the parent alone. Read-outs that look alike come from different tables or passages of the source.
Key:
Enterobacter areogenes = assay: Minimum inhibitory concentration (MIC); type: cell-based; details: Gram-negative
Description: (§1) The antibacterial effects of compounds of the invention have been assessed by determination of the minimum inhibitory concentration (M.I.C.) value against a variety of Gram-negative and -positive bacteria. The microbial susceptibility data for four compounds, together with those for the antibacterial dipeptide beta-Cl-LAla-beta-Cl-LAla, are given in Table I.
(§2) in uM to facilitate a meaningful comparison of the approximate MICs among
(§3) the tested compounds; an appreciation of the MIC values in ug/mL can be
(§4) obtained by multiplying each value (μM) by 0.55

Enterobacter cloacae = assay: Minimum inhibitory concentration (MIC); type: cell-based; details: read-out: Minimum Inhibitory Concentration
Description: as §1, §2, §3, §4

Escherichia coli CR = assay: Minimum inhibitory concentration (MIC); type: cell-based; details: read-out: Minimum Inhibitory Concentration
Description: as §1, §2, §3, §4

Escherichia coli DB4548 = assay: Minimum inhibitory concentration (MIC); type: cell-based
Description: as §1, §2, §3, §4

Escherichia coli JSR-O = assay: Minimum inhibitory concentration (MIC); type: cell-based; details: read-out: Minimum Inhibitory Concentration
Description: as §1, §2, §3, §4

[1] = tested on: Hemophilus influenzae 236; assay: Minimum inhibitory concentration (MIC); type: cell-based; details: Haemophilus influenzae
Description: as §1, §2, §3, §4

[2] = tested on: Hemophilus influenzae 238; assay: Minimum inhibitory concentration (MIC); type: cell-based; details: Haemophilus influenzae
Description: as §1, §2, §3, §4

[3] = tested on: Hemophilus influenzae 487; assay: Minimum inhibitory concentration (MIC); type: cell-based; details: Haemophilus influenzae, possesses a betalactamase
Description: as §1, §2, §3, §4

Klebsiella pneumoniae = assay: Minimum inhibitory concentration (MIC); type: cell-based; details: Gram-negative
Description: as §1, §2, §3, §4

Morganella morganii = assay: Minimum inhibitory concentration (MIC); type: cell-based; details: Gram-negative
Description: as §1, §2, §3, §4

Psuedomonas aeruginosa = assay: Minimum inhibitory concentration (MIC); type: cell-based; details: Gram-negative
Description: as §1, §2, §3, §4

[4] = tested on: Salmonella typhimurium LT 2; assay: Minimum inhibitory concentration (MIC); type: cell-based; details: Salmonella enterica, Gram-negative
Description: as §1, §2, §3, §4

Salmonella typhimurium = assay: Minimum inhibitory concentration (MIC); type: cell-based; details: Salmonella enterica, Gram-negative
Description: as §1, §2, §3, §4

Serratia marcescens = assay: Minimum inhibitory concentration (MIC); type: cell-based; details: Gram-negative
Description: as §1, §2, §3, §4

Shigella flexneri = assay: Minimum inhibitory concentration (MIC); type: cell-based; details: Gram-negative
Description: as §1, §2, §3, §4

[5] = tested on: Staphylococcus aureus H-2690-8^R; assay: Minimum inhibitory concentration (MIC); type: cell-based; details: possesses a betalactamase
Description: as §1, §2, §3, §4

[6] = tested on: Staphylococcus aureus PSL-13 Pen^R; assay: Minimum inhibitory concentration (MIC); type: cell-based; details: possesses a betalactamase
Description: as §1, §2, §3, §4

[7] = tested on: Staphylococcus aureus PSL-14 Pen^R; assay: Minimum inhibitory concentration (MIC); type: cell-based; details: possesses a betalactamase
Description: as §1, §2, §3, §4

[8] = tested on: Staphylococcus aureus PSL-15 Pen^R; assay: Minimum inhibitory concentration (MIC); type: cell-based; details: possesses a betalactamase
Description: as §1, §2, §3, §4

[9] = tested on: Staphylococcus aureus PSL-16 Pen^R; assay: Minimum inhibitory concentration (MIC); type: cell-based; details: possesses a betalactamase
Description: as §1, §2, §3, §4

[10] = tested on: Staphylococcus aureus T-4624-8 Pen^R; assay: Minimum inhibitory concentration (MIC); type: cell-based; details: possesses a betalactamase
Description: as §1, §2, §3, §4

Streptococcus agalactiae = assay: Minimum inhibitory concentration (MIC); type: cell-based; details: Gram positive
Description: as §1, §2, §3, §4

Streptococcus faecalis = assay: Minimum inhibitory concentration (MIC); type: cell-based; details: Enterococcus faecalis, read-out: Minimum Inhibitory Concentration
Description: as §1, §2, §3, §4

[11] = tested on: Escherichia coli JSR-O Cl-Pep^R; assay: Minimum inhibitory concentration (MIC); type: cell-based; details: Escherichia coli, read-out: Minimum Inhibitory Concentration
Description: as §1, §2, §3, §4
^(g) This ia an E. coli JSRO strain selected for resistance to the
A comparison of the data for E. coli strains JSR-O and JSR-O Cl-Pep^R is of special interest. E. coli Cl-Pep^R is an E. coli JSR-O mutant which was selected for resistance to the dipeptide (f). […] Note that the MIC values for (d) and (e) against E. coli Cl-Pep^R (100 and 50 μM, respectively) are quite similar.

[12] = tested on: Escherichia coli JSR-O pBR322; assay: Minimum inhibitory concentration (MIC); type: cell-based; details: read-out: Minimum Inhibitory Concentration
Description: as §1, §2, §3, §4
^(i) Contains the plasmid gene encoding the TEM betalactamase.

Corynebacterium JKM-4754 = assay: Minimum inhibitory concentration (MIC); type: cell-based
Description: as §1, §2, §3, §4
(§5) ^(j) Resistant to cephalothin (MIC >200 uM);

Corynebacterium JKR-2285 = assay: Minimum inhibitory concentration (MIC); type: cell-based
Description: as §1, §2, §3, §4, §5

Escherichia coli Ceph^R = assay: Minimum inhibitory concentration (MIC); type: cell-based; details: Escherichia coli, read-out: Minimum Inhibitory Concentration
Description: as §1, §2, §3, §4, §5

[13] = tested on: Staphylococcus epidermidis (P^R M^R); assay: Minimum inhibitory concentration (MIC); type: cell-based; details: no strain number
Description: as §1, §2, §3, §4
(§6) ^(k) P and M refer to penicillin and methicillin, respectively.

[14] = tested on: Staphylococcus epidermidis 1239(P^R M^R); assay: Minimum inhibitory concentration (MIC); type: cell-based
Description: as §1, §2, §3, §4, §6

[15] = tested on: Staphylococcus epidermidis MO1554(P^S M^S); assay: Minimum inhibitory concentration (MIC); type: cell-based; details: Staphylococcus epidermidis MO1554 (penicillin- and methicillin-sensitive, P^S M^S)
Description: as §1, §2, §3, §4, §6

[16] = tested on: Gram-negative and -positive bacteria; assay: Antibacterial activity, general trends of the MIC panel of Table I; type: cell-based; details: for sensitivity observed: H. influenzae 487, all of the S. aureus strains
Description: as §1

[17] = target: E. coli TEM beta-lactamase (Escherichia coli, UniProt P62593); assay: Kinetics of enzymatic turnover by E. coli TEM beta-lactamase; type: biochemical; details: for binding to the lactamase (KM approximating KS): effect of the C10-dipeptidyl substituent
Sequence of E. coli TEM beta-lactamase (P62593 24-286 limits assumed): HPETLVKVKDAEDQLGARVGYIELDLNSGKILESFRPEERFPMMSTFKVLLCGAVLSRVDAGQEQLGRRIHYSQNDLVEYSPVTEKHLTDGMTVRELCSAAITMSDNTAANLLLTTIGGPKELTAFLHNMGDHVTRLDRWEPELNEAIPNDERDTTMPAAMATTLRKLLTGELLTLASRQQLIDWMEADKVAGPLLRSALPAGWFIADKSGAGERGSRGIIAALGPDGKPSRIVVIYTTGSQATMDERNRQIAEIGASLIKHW
Description: Escherichi coli TEM beta-lactamase was purchased from Applied Microbiology and Research, Porton Down, U.K. L-Alanyl-L-alanine was purchase from Sigma; N-BOC-LAla-LAla and N-BOC-beta-Cl-LAla-beta-Cl-LAla were prepared as described previously. Cheung et al supra. All other reagents were of the best grade commercially available.
Kinetic Constants for the Reactions of E. coli TEM beta-Lactamase with Cephalothin and the Cephalosporin Peptide Esters 7 and 17.

[18] = JKM4754, Corynebacterium JKM-4754, resistant to cephalothin, read-out: Minimum Inhibitory Concentration
[19] = JKR2285, Corynebacterium JKR-2285, resistant to cephalothin, read-out: Minimum Inhibitory Concentration
[20] = E. cloacae, all of the susceptible E. coli strains

Row | Compound | MIC (Enterobacter areogenes) | MIC (Escherichia coli DB4548) | MIC [1] | MIC [2] | MIC [3] | MIC (Klebsiella pneumoniae) | MIC (Morganella morganii) | MIC (Psuedomonas aeruginosa) | MIC [4] | MIC (Salmonella typhimurium) | MIC (Serratia marcescens) | MIC (Shigella flexneri) | MIC [5] | MIC [6] | MIC [7] | MIC [8] | MIC [9] | MIC [10] | MIC (Streptococcus agalactiae) | MIC (Escherichia coli Ceph^R) | also measured
1 | C[C@H](N)C(=O)N[C@@H](C)C(=O)OCC1=C(C(=O)O)N2C(=O)[C@@H](NC(=O)Cc3cccs3)[C@H]2SC1 [(d), Sodium 7-beta-(2-thienylacetamido)-3-(L-alanyl-L-alanyloxymethyl)-3-cephem-4-carboxylate, toluenesulfonic acid salt] | > 200 µM | 50 µM | 50 µM | ≤ 0.78 µM | 12.5 µM | > 200 µM | 100 µM | > 200 µM | 25 µM | 100 µM | > 200 µM | 100 µM | 25 µM | > 200 µM | > 200 µM | > 200 µM | 200 µM | 25 µM | ≤ 0.78 µM | > 200 µM | MIC (Enterobacter cloacae; Gram-negative): 200 µM; MIC (Escherichia coli CR; Escherichia coli CR): 200 µM; MIC (Escherichia coli JSR-O; Escherichia coli JSR-O, parental strain): 200 µM; MIC (Streptococcus faecalis; Streptococcus faecalis, Gram positive): 50 µM; MIC [11]: 100 µM; MIC [12]: > 200 µM; MIC (Corynebacterium JKM-4754; [18]): > 200 µM; MIC (Corynebacterium JKR-2285; [19]): > 200 µM; MIC [13]: ≤ 0.78 µM; MIC [14]: ≤ 0.78 µM; MIC [15]: ≤ 0.78 µM; sensitivity observed [16, 20]: no activity was seen; Vmax compared with cephalothin [17]: substantially greater than that obtained for cephalothin; substrate for the lactamase [17]: found to be substrates for the E. coli TEM beta-lactamase; binding to the lactamase (KM approximating KS) [17]: do not compromise the binding of the cephalosporin nucleus to the lactamase
2 | N[C@@H](CCl)C(=O)N[C@@H](CCl)C(=O)OCC1=C(C(=O)O)N2C(=O)[C@@H](NC(=O)Cc3cccs3)[C@H]2SC1 [(e), 7-beta-(2-thienylacetamido)-3-(beta-chloro-L-alanyl-beta-chloro-L-alanyloxymethyl)-3-cephem-4-carboxylate] | 200 µM (≈ 113 µg/mL) | 6.25 µM (≈ 3.53 µg/mL) | 25 µM (≈ 14.1 µg/mL) | ≤ 0.78 µM | 3.12 µM (≈ 1.76 µg/mL) | > 200 µM | 50 µM (≈ 28.3 µg/mL) | > 200 µM | 25 µM (≈ 14.1 µg/mL) | 50 µM (≈ 28.3 µg/mL) | > 200 µM | 50 µM (≈ 28.3 µg/mL) | ≤ 0.78 µM | ≤ 0.78 µM | 1.56 µM (≈ 0.882 µg/mL) | 1.56 µM (≈ 0.882 µg/mL) | 1.56 µM (≈ 0.882 µg/mL) | ≤ 0.78 µM | ≤ 0.78 µM | 12.5 µM (≈ 7.07 µg/mL) | MIC (Enterobacter cloacae): 12.5 µM (≈ 7.07 µg/mL); MIC (Escherichia coli CR; Escherichia coli): 12.5 µM (≈ 7.07 µg/mL); MIC (Escherichia coli JSR-O; Escherichia coli): 12.5 µM (≈ 7.07 µg/mL); MIC (Streptococcus faecalis): 12.5 µM (≈ 7.07 µg/mL); MIC [11]: 50 µM (≈ 28.3 µg/mL); MIC [12]: 6.25 µM (≈ 3.53 µg/mL); MIC (Corynebacterium JKM-4754; [18]): 3.12 µM (≈ 1.76 µg/mL); MIC (Corynebacterium JKR-2285; [19]): 3.12 µM (≈ 1.76 µg/mL); MIC [13]: ≤ 0.78 µM; MIC [14]: ≤ 0.78 µM; MIC [15]: ≤ 0.78 µM; detectable activity among the cephalosporins ([16]; E. cloacae, all of the susceptible E. coli strains, Corynebacterium strains, S. faecalis): the only cephalosporin with detectable activity; sensitivity observed [16, 20]: sensitivity was observed; insensitivity / resistance ([16]; P. aeruginosa, S. marcescens and K. pneumoniae): resistant; sensitivity ([16]; S. aureus strains, Corynebacterium JK strains, S. faecalis, H. influenzae 487, E. coli JSR-O and E. cloacae): sensitive; antimicrobial potency compared with the other cephalosporins ([16]; Table I, all strains): by-and-large a more potent antimicrobial agent than the other three cephalosporins (b), (c) and (d); antibiotic potency of (e) versus amino acid ester (c) ([16]; strains sensitive to both (c) and (e)): invariably more potent an antibiotic than is the amino acid ester (c); Vmax compared with cephalothin [17]: substantially greater than that obtained for cephalothin; substrate for the lactamase [17]: found to be substrates for the E. coli TEM beta-lactamase; binding to the lactamase (KM approximating KS) [17]: do not compromise the binding of the cephalosporin nucleus to the lactamase
3 | CC(=O)OCC1=C(C(=O)O)N2C(=O)[C@@H](NC(=O)Cc3cccs3)[C@H]2SC1 [cephalothin, reference compound] | – | – | – | – | – | – | – | – | – | – | – | – | – | – | – | – | – | – | – | > 200 µM | MIC (Corynebacterium JKM-4754; Corynebacterium, JKM4754, read-out: Minimum Inhibitory Concentration): > 200 µM; MIC (Corynebacterium JKR-2285; Corynebacterium, JKR2285, read-out: Minimum Inhibitory Concentration): > 200 µM
